Patent US6479546B1, “Allosteric inhibitors of lipoxygenase” (The Regents of the University of California, priority 2000, dated 2002)
Where a name gives a salt, the structure may show the parent alone. Read-outs that look alike come from different tables or passages of the source.

Experiments:
[1] = Surface tension measurements (CMC); type: physicochemical
Protocol: Surface Tension Measurements. Buffers were used which correspond to those of the kinetic measurements. Surface tension was measured as described by Harkins et al., using a thin platinum plate (perimeter 2.5 cm) and a Cahn electro-microbalance. Harkins et al., J. Am. Chem. Soc. (1937) 59:2189-2197. Various amounts of surface active agent were added to a 30 ml buffer solution and the surface tension was continuously recorded. After each addition, a sufficiently long period of time (10-30 min.) was allowed to elapse before attaining a steady value of the surface tension. Critical micelle concentration (CMC) values were obtained by plotting the measured surface tensions versus the logarithm of the concentrations of the surface-active agent and recording the intercept of the two straight lines. The point at which a deviation from the straight line, as observed in the surface tension versus log [surface-active agent] plot, was defined as the start of pre-micellular aggregate formation. Harkins et al., supra; Verhagen et al., Chem. Phys. Lipids (1978) 22:255-259.

SLO-1 [2] = target: T1, SLO-1 (Glycine max, UniProt P08170); experiment: Steady state kinetics / inhibition studies, SLO-1; type: biochemical, soybean
T1 construct: made in house
T1 sequence (P08170 1-839): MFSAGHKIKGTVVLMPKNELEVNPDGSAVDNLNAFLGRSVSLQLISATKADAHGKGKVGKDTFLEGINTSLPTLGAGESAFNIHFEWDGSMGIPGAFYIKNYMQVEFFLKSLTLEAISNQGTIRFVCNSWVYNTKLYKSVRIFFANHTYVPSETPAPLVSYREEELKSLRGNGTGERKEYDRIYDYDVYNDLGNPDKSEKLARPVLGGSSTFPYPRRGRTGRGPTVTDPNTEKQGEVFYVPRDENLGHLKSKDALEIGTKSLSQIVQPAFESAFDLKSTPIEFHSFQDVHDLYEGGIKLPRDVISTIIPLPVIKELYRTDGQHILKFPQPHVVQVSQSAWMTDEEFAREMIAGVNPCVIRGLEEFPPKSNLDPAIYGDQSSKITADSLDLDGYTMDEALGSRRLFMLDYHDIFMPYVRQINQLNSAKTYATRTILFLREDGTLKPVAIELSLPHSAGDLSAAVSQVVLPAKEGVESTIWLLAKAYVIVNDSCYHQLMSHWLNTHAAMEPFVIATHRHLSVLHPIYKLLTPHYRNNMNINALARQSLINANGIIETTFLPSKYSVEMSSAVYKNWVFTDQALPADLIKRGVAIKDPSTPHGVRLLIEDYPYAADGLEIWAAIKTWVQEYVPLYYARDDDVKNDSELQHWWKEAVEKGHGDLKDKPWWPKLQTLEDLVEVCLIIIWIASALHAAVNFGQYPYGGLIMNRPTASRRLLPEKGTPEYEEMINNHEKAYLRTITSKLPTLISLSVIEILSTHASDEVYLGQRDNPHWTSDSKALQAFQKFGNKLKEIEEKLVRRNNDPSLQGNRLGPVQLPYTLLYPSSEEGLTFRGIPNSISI
Protocol: Steady State Kinetics. Lipoxygenase rates were determined by following the formation of product at 234 nm (ε=25,000 M^−1cm^−1) with a Hewlett-Packard 8453 UV-vis spectrophotometer. The destruction of 13-HPOD by the diode array spectrophotometer were negligible under these reaction conditions. All reactions were 2 ml in volume, run at room temperature (23° C.) and constantly stirred with a rotating magnetic bar. In experiments using SLO-1, kinetic reactions were performed in 0.1 M borate (pH 9.2), while reactions using 15-HLO were performed in 25 mM HEPES (pH 7.5). Substrate solutions used in each experiment were measured for accurate LA concentration by quantitatively converting substrate to product using soybean lipoxygenase-1. Enzymatic rates were measured between 1-50 μM LA with 1-25 μM OS for SLO-1 and lower than 2 μM LA for 15-HLO. Solutions containing LA and/or OS were sonicated for 3-5 minutes before use in kinetic experiments. Rate reactions were initiated by the addition of enzyme to final concentrations of 3 nM SLO-1 (80% iron content) and 200 nM 15-HLO (15% iron content). All kinetic parameters were determined by non-linear regression using Kaleidagraph software (Abelbeck).

SLO-1 [3] = target: T1, SLO-1; experiment: Kinetic isotope effect (KIE) titration, SLO-1; type: biochemical, soybean; details: for Kd: SLO-1, 5 μM LA/D-LA, pH 9.2, read-out: KD from hyperbolic fit of KIE
Protocol: Kinetic Isotope Effect Determination. Determination of the kinetic isotope effect (KIE) was similar to that previously published by Holman and coworkers with the following modifications. Lewis et al., J. Am. Chem. Soc. (1994) 116:795-796. Lipoxygenase is added (0.12 nM SLO-1 and 12 nM 15-HLO) to a protio/per-deutero LA mixture (60 mL, 5 μM LA/D-LA), monitored at 234 nm with a P-E Lambda 4 and stopped with an acid quench (5% glacial acetic acid) at less than 5% total LA/D-LA consumption. […] The acidified reaction mixture is extracted with methylene chloride (trimethylphosphite, which quantitatively reduces the labile 13-HPOD, is not needed since both the alcohol and the peroxide have the same elution time). […] (isocratic mobile phase: 74.9% Methanol :25% H2O: 0.1% Acetic acid). […] Lewis et al., supra. […] When the percent conversion (f) to product is less than 5%, this equation simplifies to ([[…]]), where [P-H] is protio-product concentration and [So-H] is the initial protio-substrate concentration. […] et al., Reaction Rates of Isotopic Molecules (R. E. Krieger Publishing, Florida)(1987). […] Greater substrate ratios than 2:1 were not used due to the expensive nature of the per-deutero substrate. Under these conditions, the upper limit for the KIE is greater than 130 and is limited by the vanishingly small peak area of the per-deutero 13-HPOD peak relative to the negative control. This RP-HPLC based method for determining molar protio/per-deutero 13-HPOD ratios gave results identical (within experimental error) to those obtained by EI-MS. No appreciable side products at any wavelength for 15-HLO or SLO-1 were observed, indicating no reaction branching. The OS titration experiments require 5 μM LA/D-LA to record product ratios. For the 15-HLO experiments (pH 7.5), OS concentrations above 6 μM were not feasible due to large amounts of a white emulsion at the extraction interface which inhibited product recovery. This emulsion was not observed for reactions performed with SLO-1 (pH 9.2). […] All kinetic data reported were measured in triplicate on two distinct days.

15-HLO = target: T2, 15-HLO (Homo sapiens, UniProt P16050); experiment: Kinetic isotope effect (KIE) titration, 15-HLO; type: biochemical
T2 construct: made in house
T2 sequence (P16050 1-662): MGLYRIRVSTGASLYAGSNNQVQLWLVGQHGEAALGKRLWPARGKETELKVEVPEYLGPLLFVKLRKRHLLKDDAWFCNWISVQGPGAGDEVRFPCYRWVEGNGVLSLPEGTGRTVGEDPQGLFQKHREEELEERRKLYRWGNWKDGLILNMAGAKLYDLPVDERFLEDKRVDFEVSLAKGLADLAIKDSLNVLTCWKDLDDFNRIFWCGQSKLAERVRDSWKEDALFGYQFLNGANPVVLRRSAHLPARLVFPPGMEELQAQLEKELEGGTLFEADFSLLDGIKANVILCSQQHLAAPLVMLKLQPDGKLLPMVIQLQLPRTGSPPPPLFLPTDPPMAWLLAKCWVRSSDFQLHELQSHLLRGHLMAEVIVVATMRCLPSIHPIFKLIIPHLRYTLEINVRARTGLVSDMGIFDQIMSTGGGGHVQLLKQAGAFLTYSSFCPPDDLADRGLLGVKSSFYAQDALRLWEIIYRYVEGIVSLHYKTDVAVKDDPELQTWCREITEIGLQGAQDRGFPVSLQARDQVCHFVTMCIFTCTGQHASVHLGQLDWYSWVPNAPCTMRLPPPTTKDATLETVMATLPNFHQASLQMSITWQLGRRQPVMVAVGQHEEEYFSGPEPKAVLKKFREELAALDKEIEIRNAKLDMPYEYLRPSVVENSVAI
Protocol: Kinetic Isotope Effect Determination. Determination of the kinetic isotope effect (KIE) was similar to that previously published by Holman and coworkers with the following modifications. Lewis et al., J. Am. Chem. Soc. (1994) 116:795-796. Lipoxygenase is added (0.12 nM SLO-1 and 12 nM 15-HLO) to a protio/per-deutero LA mixture (60 mL, 5 μM LA/D-LA), monitored at 234 nm with a P-E Lambda 4 and stopped with an acid quench (5% glacial acetic acid) at less than 5% total LA/D-LA consumption. It is important to note that diode array spectrophotometers degrade 13-hydroperoxy-9,11-(Z,E)-octadecadienoic acid (13-HPOD) and care should be taken if the reaction time length is longer than 5 minutes. The acidified reaction mixture is extracted with methylene chloride (trimethylphosphite, which quantitatively reduces the labile 13-HPOD, is not needed since both the alcohol and the peroxide have the same elution time). The methylene chloride layer is evaporated to dryness under vacuum, reconstituted in 50 μL running buffer, injected onto a C18 column (Higgins Analytical, 5 micron, 250×4.6 mm), and eluted at 1 mL/min. (isocratic mobile phase: 74.9% Methanol :25% H2O: 0.1% Acetic acid). […] All kinetic data reported were measured in triplicate on two distinct days.

For `CCCCC/C=C\C/C=C\CCCCCCCC(=O)O` [LA, Linoleic Acid], the CMC ([1]; 25 mM HEPES (pH 7.5)) was 40 ± 10 µM, the CMC ([1]; 0.1 M borate (pH 9.2)) was 150 ± 10 µM and the Kd (SLO-1 [2]; SLO-1, no appreciable substrate inhibition below 30 μM LA, read-out: KD (allosteric site)) was > 30000 nM.
`CCCCCCCC/C=C\CCCCCCCC(=O)O` [OA, oleic acid] showed a Kd (SLO-1 [3]) of 36000 ± 14000 nM.
With `CCCCCCCC/C=C\CCCCCCCCOS(=O)(=O)O` [OS, (Z)-9-octadecenyl sulfate] the Kd (SLO-1 [3]) was 600 ± 200 nM, the Kd (15-HLO; 5 μM LA/D-LA, pH 7.5, read-out: KD from hyperbolic fit of KIE) was 400 ± 50 nM and the Kd (15-HLO; conclusion, unit inferred, read-out: KD) was 450 ± 50 nM. The “lessens the rate of catalysis (k2 decreases)” value (SLO-1 [2]; SLO-1) was 15%, the Ki (SLO-1 [2]; fit to Km (app) saturation curve, Eq. 3, read-out: Ki) was 450 ± 160 nM and the Ki (SLO-1 [2]; fit to kcat/Km data, Eq. 4, β approximated 0.85, read-out: Ki) was 860 ± 110 nM. The Ki (SLO-1 [2]; simulation Scheme 3, Eqs. 7 and 8, read-out: Kii (catalytic site), minimal value) was ≥ 100000 nM.
In the case of `CCCCCCCCCCCCOS(=O)(=O)[O-].[Na+]` [SDS], the “effect on KIE” value (SLO-1 [3]; control for non-specific surfactant binding) is reported as “no increase in the KIE”.
